The target of assay [1] is T1, Homeodomain-interacting protein kinase 4 (Homo sapiens) (UniProt Q8NE63).
T1 sequence (whole entry): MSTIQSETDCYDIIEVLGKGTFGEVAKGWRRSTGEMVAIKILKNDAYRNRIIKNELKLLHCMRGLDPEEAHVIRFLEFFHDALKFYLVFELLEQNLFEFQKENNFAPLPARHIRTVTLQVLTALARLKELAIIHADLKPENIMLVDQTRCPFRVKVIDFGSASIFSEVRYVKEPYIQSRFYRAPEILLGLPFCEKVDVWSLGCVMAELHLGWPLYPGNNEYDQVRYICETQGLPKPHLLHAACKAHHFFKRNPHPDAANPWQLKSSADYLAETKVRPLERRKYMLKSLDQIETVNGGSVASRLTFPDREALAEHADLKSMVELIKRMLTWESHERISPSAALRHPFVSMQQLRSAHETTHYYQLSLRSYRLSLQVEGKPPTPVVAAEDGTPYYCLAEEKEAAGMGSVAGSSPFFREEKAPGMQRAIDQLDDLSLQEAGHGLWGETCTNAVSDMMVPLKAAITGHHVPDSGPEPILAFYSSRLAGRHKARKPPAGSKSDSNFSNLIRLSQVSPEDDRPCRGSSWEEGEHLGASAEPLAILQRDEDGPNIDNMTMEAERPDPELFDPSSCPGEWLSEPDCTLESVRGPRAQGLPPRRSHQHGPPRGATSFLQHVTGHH
The experiment in a line: Selectivity interaction (Kinase panel (Z-LYTE Assay)) EUB0001632a HIPK4. The conditions noted are these: at 10 µM.

Assay [2] addresses T2, Serine/threonine-protein kinase Nek11 (Homo sapiens) (UniProt Q8NG66).
T2 sequence (whole entry): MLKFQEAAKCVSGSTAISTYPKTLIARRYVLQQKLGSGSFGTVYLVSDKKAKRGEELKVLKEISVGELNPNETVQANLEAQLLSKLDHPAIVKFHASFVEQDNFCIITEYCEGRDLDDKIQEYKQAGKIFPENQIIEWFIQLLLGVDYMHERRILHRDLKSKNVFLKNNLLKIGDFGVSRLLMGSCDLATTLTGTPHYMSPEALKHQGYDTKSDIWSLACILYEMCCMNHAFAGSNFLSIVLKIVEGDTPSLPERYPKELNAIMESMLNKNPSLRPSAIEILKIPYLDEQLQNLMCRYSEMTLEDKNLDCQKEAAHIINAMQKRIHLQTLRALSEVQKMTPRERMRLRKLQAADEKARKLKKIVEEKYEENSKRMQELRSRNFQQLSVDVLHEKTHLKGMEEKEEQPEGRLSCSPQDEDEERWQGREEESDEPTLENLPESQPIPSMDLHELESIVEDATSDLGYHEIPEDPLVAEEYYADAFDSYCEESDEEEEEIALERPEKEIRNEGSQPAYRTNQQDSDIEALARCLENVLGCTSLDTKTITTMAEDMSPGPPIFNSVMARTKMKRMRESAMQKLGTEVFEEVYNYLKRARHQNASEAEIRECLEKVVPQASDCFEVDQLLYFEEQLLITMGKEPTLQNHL
Put plainly: Selectivity interaction (Ambit KINOMEscan and KiNATiv profiling in Jurkat cells) EUB0000090b NEK11. In kind it is cell-based. The conditions noted are these: at 1 µM.

Assay [3] addresses T3, Phosphorylase b kinase gamma catalytic chain, liver/testis isoform (Homo sapiens) (UniProt P15735).
T3 sequence (whole entry): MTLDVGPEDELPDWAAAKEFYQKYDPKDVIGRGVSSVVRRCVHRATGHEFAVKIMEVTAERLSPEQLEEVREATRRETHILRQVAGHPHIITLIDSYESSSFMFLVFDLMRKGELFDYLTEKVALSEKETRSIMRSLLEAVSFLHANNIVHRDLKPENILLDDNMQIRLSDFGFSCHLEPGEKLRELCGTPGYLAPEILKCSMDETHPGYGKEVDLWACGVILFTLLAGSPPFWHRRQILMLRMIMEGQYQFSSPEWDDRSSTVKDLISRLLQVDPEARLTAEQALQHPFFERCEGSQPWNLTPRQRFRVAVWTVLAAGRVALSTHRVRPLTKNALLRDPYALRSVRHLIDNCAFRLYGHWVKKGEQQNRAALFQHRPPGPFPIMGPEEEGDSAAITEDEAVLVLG
Put plainly: Selectivity interaction (KinomeScan (DiscoverX)) EUB0000607a PHKG2. To be noted: at 10 µM.

In assay [4] the target is MAP kinase-interacting serine/threonine-protein kinase 1 (Homo sapiens) (UniProt Q9BUB5). The experiment in a line: Selectivity interaction (KinomeScan (DiscoverX)) EUB0001049a MKNK1. The conditions noted are these: at 1 µM.
Chain of MAP kinase-interacting serine/threonine-protein kinase 1 (Homo sapiens) (Q9BUB5 whole entry, looked up): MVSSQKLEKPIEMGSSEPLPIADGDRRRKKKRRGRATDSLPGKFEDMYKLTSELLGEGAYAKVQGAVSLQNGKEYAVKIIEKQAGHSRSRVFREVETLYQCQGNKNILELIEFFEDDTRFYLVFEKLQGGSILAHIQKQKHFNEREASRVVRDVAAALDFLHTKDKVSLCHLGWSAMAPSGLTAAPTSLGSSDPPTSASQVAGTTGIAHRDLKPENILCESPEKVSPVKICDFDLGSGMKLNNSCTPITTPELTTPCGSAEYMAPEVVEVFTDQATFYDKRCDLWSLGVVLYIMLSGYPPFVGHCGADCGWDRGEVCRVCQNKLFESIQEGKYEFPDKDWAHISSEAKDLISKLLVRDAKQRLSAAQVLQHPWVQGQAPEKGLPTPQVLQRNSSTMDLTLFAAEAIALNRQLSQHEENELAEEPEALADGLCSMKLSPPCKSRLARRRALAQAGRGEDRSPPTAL
Assay [5] in a line: Selectivity interaction (KinomeScan (DiscoverX)) EUB0000695a CDK2H. To be noted: at 100 nM.
Assay [6] concerns the target T4, Ephrin type-B receptor 6 (Homo sapiens) (UniProt O15197).
T4 sequence (whole entry): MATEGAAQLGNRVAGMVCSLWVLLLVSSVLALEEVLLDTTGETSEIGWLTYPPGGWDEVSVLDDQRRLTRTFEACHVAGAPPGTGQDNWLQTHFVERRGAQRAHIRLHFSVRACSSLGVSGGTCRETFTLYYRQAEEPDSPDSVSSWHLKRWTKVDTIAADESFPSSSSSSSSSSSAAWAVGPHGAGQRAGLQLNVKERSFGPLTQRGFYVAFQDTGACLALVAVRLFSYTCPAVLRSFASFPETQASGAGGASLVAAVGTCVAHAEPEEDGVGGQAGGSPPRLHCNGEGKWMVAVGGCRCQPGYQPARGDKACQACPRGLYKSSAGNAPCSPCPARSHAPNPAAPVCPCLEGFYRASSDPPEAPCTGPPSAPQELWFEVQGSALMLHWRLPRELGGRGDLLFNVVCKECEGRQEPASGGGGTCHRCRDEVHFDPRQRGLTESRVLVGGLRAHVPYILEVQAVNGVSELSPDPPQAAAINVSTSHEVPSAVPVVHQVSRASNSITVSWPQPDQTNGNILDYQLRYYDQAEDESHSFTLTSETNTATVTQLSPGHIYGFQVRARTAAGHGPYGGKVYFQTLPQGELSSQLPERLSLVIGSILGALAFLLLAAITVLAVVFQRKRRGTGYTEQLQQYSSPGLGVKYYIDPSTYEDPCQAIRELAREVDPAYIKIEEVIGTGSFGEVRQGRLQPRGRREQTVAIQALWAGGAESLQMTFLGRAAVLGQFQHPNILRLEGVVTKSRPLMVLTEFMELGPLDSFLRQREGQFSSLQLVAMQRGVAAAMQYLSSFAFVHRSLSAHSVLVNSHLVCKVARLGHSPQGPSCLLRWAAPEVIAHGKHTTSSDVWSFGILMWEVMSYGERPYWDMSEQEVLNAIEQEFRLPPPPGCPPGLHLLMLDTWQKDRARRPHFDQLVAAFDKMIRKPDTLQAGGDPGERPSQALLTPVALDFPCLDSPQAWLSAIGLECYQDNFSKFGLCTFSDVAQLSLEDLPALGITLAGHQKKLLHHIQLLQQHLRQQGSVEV
Put plainly: Selectivity interaction (KinomeScan (DiscoverX)) EUB0000045b EPHB6.

Compound `Cn1cc(-n2cnc3c(NCc4nc5cc(Cl)c(Cl)cc5[nH]4)nc(N4CCOCC4)nc32)cn1` showed a % of control in assay [1] of 6.45%. As for `CN(C)C/C=C/C(=O)Nc1ccc(C(=O)N2CCCC(Nc3ncc(Cl)c(-c4c[nH]c5ccccc45)n3)C2)cc1` (configuration not stated), in assay [2], the % of control came to 90%.

The compound `CNC(=O)Nc1ccc(-c2nc(N3CC4CCC(C3)O4)c3cnn(C4CCC5(CC4)OCCO5)c3n2)cc1` gave a % of control in assay [3] of 96%. Compound `COc1cc(Nc2nc(C)cc(-c3cnn4nc(OC)ccc34)n2)cc(C(F)(F)F)c1` registered a % of control in assay [4] of 93%. Consider `Cc1cc(F)c(C(=O)Nc2cccc(-c3nncn3C(C)C)n2)cc1-n1cnc(C2CC2)c1`, for which the % of control in assay [5] stood at 92%. Turning to `C=CC(=O)Nc1cc(-n2c(=O)ccc3cnc4ccc(-c5ccc(NS(C)(=O)=O)cc5)cc4c32)ccc1C`, the results for the % of control in assay [6] (at 1 µM) and in assay [6] (at 10 µM) were 90% and 85%, respectively.

(Values after ChEMBL document CHEMBL5465560, “Selectivity Literature for EUbOPEN Chemogenomic Library” (2024).)
